Where a name gives a salt, the structure may show the parent alone.
Legend:
[1] = molecular target: T1, cholesterol side-chain cleaving enzyme (Sus scrofa, UniProt P10612); assay: Inhibitory activity against cholesterol side-chain cleaving enzyme (Pharmacological Test 2, porcine adrenal mitochondria); format: biochemical; conditions: substrate 5-cholesten-3β-ol 5.0×10^-6 M, read-out: SCC-IC50
T1 construct: porcine adrenal mitochondria; from tissue; host or cells: porcine adrenal mitochondria
T1 sequence (P10612 40-520): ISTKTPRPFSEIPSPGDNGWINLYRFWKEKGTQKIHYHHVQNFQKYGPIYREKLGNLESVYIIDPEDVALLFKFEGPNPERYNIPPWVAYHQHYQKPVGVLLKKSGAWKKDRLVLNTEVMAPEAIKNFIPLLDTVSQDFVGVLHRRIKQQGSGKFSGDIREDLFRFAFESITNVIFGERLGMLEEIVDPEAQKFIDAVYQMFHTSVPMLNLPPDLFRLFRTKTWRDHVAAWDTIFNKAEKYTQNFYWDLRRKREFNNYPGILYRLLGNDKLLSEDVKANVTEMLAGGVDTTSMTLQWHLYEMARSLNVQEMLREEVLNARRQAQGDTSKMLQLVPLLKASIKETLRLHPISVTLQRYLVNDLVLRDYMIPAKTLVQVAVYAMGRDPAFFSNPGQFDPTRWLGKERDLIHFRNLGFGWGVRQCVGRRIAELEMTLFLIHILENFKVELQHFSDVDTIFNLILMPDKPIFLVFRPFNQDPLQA
Method: Inhibitory activity against cholesterol side-chain cleaving enzyme was determined according to the method of M. Shikita and P. F. Hall [Proc. Nat. […] Briefly, the each compound to be tested was added to a reaction vial containing porcine adrenal mitochondria, [4-^14 C]5-cholesten-3β-ol (250 Bq/5 nmol) and NADPH. […] These were separated by extracting the reaction mixture with methylene-dichloride followed by purifying with thin-layer chromatography. Substrate (5-cholesten-3β-ol) and reaction product (3β-hydroxypregn-5-en-20-one) were respectively measured by a liquid scintillation counter. The measured quantity of 3β-hydroxypregn-5-en-20-one was used to determine cholesterol side-chain cleaving activity which was compared with the activity when incubated without inhibitor to calculate inhibition ratio (%).

[2] = Acute toxicity in ICR female mice, oral (Pharmacological Test 4); conditions: mouse, in vivo, suspended in distilled water with 1% hydroxypropylcellulose, observation for fourteen days
Text: The acute toxicity of the compounds of the present invention was examined by the following method.

Aromatase = molecular target: T2, Aromatase (Homo sapiens, UniProt P11511); assay: Aromatase inhibitory activity (Pharmacological Test 1, human placenta microsome); format: biochemical; conditions: substrate 4-androsten-3,17-dione 1.0×10^-6 M, read-out: AI-IC50
T2 construct: human placenta microsome; from tissue; host or cells: human placenta microsomes
T2 sequence (P11511 1-503): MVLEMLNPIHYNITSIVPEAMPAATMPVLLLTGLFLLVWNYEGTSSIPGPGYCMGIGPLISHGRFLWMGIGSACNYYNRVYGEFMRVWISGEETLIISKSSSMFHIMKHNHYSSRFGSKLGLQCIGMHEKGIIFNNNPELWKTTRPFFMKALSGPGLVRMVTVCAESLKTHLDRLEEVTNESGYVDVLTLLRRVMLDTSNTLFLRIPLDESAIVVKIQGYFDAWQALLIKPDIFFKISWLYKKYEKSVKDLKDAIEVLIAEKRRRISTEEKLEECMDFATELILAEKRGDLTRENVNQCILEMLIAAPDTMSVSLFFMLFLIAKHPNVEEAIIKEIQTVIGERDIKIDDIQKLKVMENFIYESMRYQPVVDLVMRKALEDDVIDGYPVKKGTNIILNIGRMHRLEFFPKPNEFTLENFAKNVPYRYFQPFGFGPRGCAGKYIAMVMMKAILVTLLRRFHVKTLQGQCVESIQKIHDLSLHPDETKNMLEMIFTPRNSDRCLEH
Method: Aromatase inhibitory activity was determined according to the method of E. A. Thompson and P. K. Siiteri [J. Biol. Chem., 249, 5364-5372 (1974)]. The each compound to be tested was added to a reaction vial containing human placenta microsome, [1β,2 β-^3 H]4-androsten-3,17-dione (3.3 kBq/500 pmol) and NADPH. […] The obtained [^3 H]H2 O was measured by a liquid scintillation counter. The measured quantity of [3H]H20 was used to determine aromatase activity, and was compared with the activity when incubated without inhibitor to calculate inhibition ratio (%).

Question: Which IC50 [1] does the source give for c1cn(-c2nc(N3CCOCC3)nc(N3CCSC3)n2)cn1 [Compound 7, 2-(1-Imidazolyl)-4-morpholino-6-(3-thiazolidinyl)-1,3,5-triazine] here?
Answer: 72 µM

Question: And the LD50 at 336 h [2]?
Answer: 300 to 400 mg/kg

Question: What about the IC50 (Aromatase) of the same molecule?
Answer: 0.0066 µM

Question: With N#CC1(c2ccccc2)CCN(c2nc(N3CCOCC3)nc(-n3ccnc3)n2)CC1 [Compound 13, 2-(4-Cyano-4-phenylpiperidino)-4-(1-imidazolyl)-6-morpholino-1,3,5-triazine] as the molecule, how does the IC50 [1] read?
Answer: 22 µM

Question: And the LD50 at 336 h [2]?
Answer: > 400 mg/kg

Question: What about the IC50 (Aromatase) of the same molecule?
Answer: 0.009 µM

Question: Which IC50 [1] does the source give for c1cn(-c2nc(N3CCOCC3)nc(N3CCOCC3)n2)cn1 [Compound 16, 2-(1-Imidazolyl)-4,6-dimorpholino-1,3,5-triazine] here?
Answer: > 100 µM

Question: What about the LD50 at 336 h [2] of the same molecule?
Answer: 200 to 300 mg/kg

Question: What about the IC50 (Aromatase) of the same molecule?
Answer: 0.0053 µM

Question: Which results are given for c1cn(-c2nc(N3CCCC3)nc(-n3ccnc3)n2)cn1 [Compound 26, 2,4-Bis(1-imidazolyl)-6-(1-pyrrolidinyl)-1,3,5-triazine]?
Answer: IC50 [1]: > 100 µM; IC50 (Aromatase): 0.062 µM

Question: What does the source list for c1cn(-c2nc(N3CCCCC3)nc(-n3ccnc3)n2)cn1 [Compound 27, 2,4-Bis(1-imidazolyl)-6-piperidino-1,3,5-triazine]?
Answer: IC50 [1]: > 100 µM; IC50 (Aromatase): 0.064 µM

Question: Which results are given for c1ccc(C2CCN(c3nc(-n4ccnc4)nc(-n4ccnc4)n3)CC2)cc1 [Compound 28, 2,4-Bis(1-imidazolyl)-6-(4-phenylpiperidino)-1,3,5-triazine]?
Answer: IC50 [1]: 9.5 µM; IC50 (Aromatase): 0.062 µM

Question: Which IC50 [1] does the source give for CN1CCN(c2nc(-n3ccnc3)nc(-n3ccnc3)n2)CC1 [Compound 29, 2,4-Bis (1-imidazolyl)-6-(4-methyl-1-piperazinyl)-1,3,5-triazine] here?
Answer: 75 µM

Question: What about the IC50 (Aromatase) of the same molecule?
Answer: 0.23 µM

Question: What does the source list for c1ccc(N2CCN(c3nc(-n4ccnc4)nc(-n4ccnc4)n3)CC2)cc1 [Compound 30, 2,4-Bis(1-imidazolyl)-6-(4-phenyl-1-piperazinyl)-1,3,5-triazine]?
Answer: IC50 [1]: 65 µM; IC50 (Aromatase): 0.22 µM

Question: Which IC50 [1] does the source give for c1cn(-c2nc(N3CCSCC3)nc(-n3ccnc3)n2)cn1 [Compound 31, 2,4-Bis (1-imidazolyl)-6-thiomorpholino-1,3,5-triazine] here?
Answer: > 100 µM

Question: And the IC50 (Aromatase)?
Answer: 0.043 µM

Question: Which results are given for CN(c1ccccc1)c1nc(-n2ccnc2)nc(-n2ccnc2)n1 [Compound 32, 2,4-Bis(1-imidazolyl)-6-(N-methyl-N-phenylamino)-1,3,5-triazine]?
Answer: IC50 [1]: 16 µM; IC50 (Aromatase): 0.029 µM

Question: With CCCCN(CCCC)c1nc(-n2ccnc2)nc(-n2ccnc2)n1 [Compound 36, 2-(Di-n-butylamino)-4,6-bis(1-imidazolyl)-1,3,5-triazine] as the molecule, how does the IC50 [1] read?
Answer: 12 µM

Question: And the IC50 (Aromatase)?
Answer: 0.014 µM

Question: With c1cn(-c2nc(N3CCOCC3)nc(N3CCSCC3)n2)cn1 [Compound 37, 2-(1-Imidazolyl)-4-morpholino-6-thiomorpholino-1,3,5-triazine] as the molecule, how does the IC50 [1] read?
Answer: > 100 µM

Question: And the LD50 at 336 h [2]?
Answer: > 400 mg/kg

Question: What about the IC50 (Aromatase) of the same molecule?
Answer: 0.011 µM

Question: Which results are given for c1ccc(C2CCN(c3nc(N4CCOCC4)nc(-n4ccnc4)n3)CC2)cc1 [Compound 38, 2-(1-Imidazolyl)-4-morpholino-6-(4-phenylpiperidino)-1,3,5-triazine]?
Answer: IC50 [1]: 23 µM; LD50 at 336 h [2]: > 400 mg/kg; IC50 (Aromatase): 0.038 µM

Question: What does the source list for c1ccc(C2CCN(c3nc(N4CCSCC4)nc(-n4ccnc4)n3)CC2)cc1 [Compound 39, 2-(1-Imidazolyl)-4-(4-phenylpiperidino)-6-thiomorpholino-1,3,5-triazine]?
Answer: IC50 [1]: 37 µM; IC50 (Aromatase): 0.02 µM

Question: Which IC50 [1] does the source give for CCOC(=O)C1CCN(c2nc(N3CCOCC3)nc(-n3ccnc3)n2)CC1 [Compound 40, 2-(4-Ethoxycarbonylpiperidino)-4-(1-imidazolyl)-6-morpholino-1,3,5-triazine] here?
Answer: 66 µM

Question: And the IC50 (Aromatase)?
Answer: 0.024 µM

Question: Which IC50 [1] does the source give for CC(C)(C)OC(=O)C1CCCN1c1nc(N2CCOCC2)nc(-n2ccnc2)n1 (centres unmarked) [Compound 41, 2-(2-tert-Butoxycarbonyl-1-pyrrolidinyl)-4-(1-imidazolyl)-6-morpholino-1,3,5-triazine] here?
Answer: > 100 µM

Question: And the IC50 (Aromatase)?
Answer: 0.037 µM

Question: With CC1CN1c1nc(N2CCOCC2)nc(-n2ccnc2)n1 (centres unmarked) [Compound 42, 2-(1-Imidazolyl)-4-(2-methyl-1-aziridinyl)-6-morpholino-1,3,5-triazine] as the molecule, how does the IC50 [1] read?
Answer: > 100 µM

Question: And the IC50 (Aromatase)?
Answer: 0.057 µM

Question: Which results are given for Fc1ccc(N2CCN(c3nc(N4CCOCC4)nc(-n4ccnc4)n3)CC2)cc1 [Compound 43, 2-[4-(4-Fluorophenyl)-1-piperazinyl]-4-(1-imidazolyl)-6-morpholino-1,3,5-triazine]?
Answer: IC50 [1]: > 100 µM; IC50 (Aromatase): 0.02 µM

Question: With c1cnc(N2CCN(c3nc(N4CCOCC4)nc(-n4ccnc4)n3)CC2)nc1 [Compound 44, 2-(1-Imidazolyl)-4-morpholino-6-[4-(2-pyrimidinyl)-1-piperazinyl]-1,3,5-triazine] as the molecule, how does the IC50 [1] read?
Answer: > 100 µM

Question: What about the IC50 (Aromatase) of the same molecule?
Answer: 0.033 µM

Question: With O=[N+]([O-])c1ccc(N2CCN(c3nc(N4CCOCC4)nc(-n4ccnc4)n3)CC2)cc1 [Compound 45, 2-(1-Imidazolyl)-4-morpholino-6-[4-(4-nitrophenyl)-1-piperazinyl]-1,3,5-triazine] as the molecule, how does the IC50 [1] read?
Answer: > 100 µM

Question: And the IC50 (Aromatase)?
Answer: 0.0072 µM

Question: Which IC50 [1] does the source give for OC1CCN(c2nc(N3CCOCC3)nc(-n3ccnc3)n2)CC1 [Compound 46, 2-(4-Hydroxypiperidino)-4-(1-imidazolyl)-6-morpholino-1,3,5-triazine] here?
Answer: 100 µM

Question: And the IC50 (Aromatase)?
Answer: 0.053 µM

Question: For OCCC1CCCCN1c1nc(N2CCOCC2)nc(-n2ccnc2)n1 (centres unmarked) [Compound 47, 2-[2-(2-Hydroxyethyl)piperidino]-4-(1-imidazolyl)-6-morpholino-1,3,5-triazine], which IC50 [1] is on record?
Answer: > 100 µM

Question: What about the IC50 (Aromatase) of the same molecule?
Answer: 0.044 µM

Question: What does the source list for CCCCN(c1ccccc1)c1nc(-n2ccnc2)nc(-n2ccnc2)n1 [Compound 50, 2-(N-n-Butyl-N-phenylamino)-4,6-bis (1-imidazolyl)-1,3,5-triazine]?
Answer: IC50 [1]: 15 µM; IC50 (Aromatase): 0.016 µM

Question: With CN(c1ccc([N+](=O)[O-])cc1)c1nc(-n2ccnc2)nc(-n2ccnc2)n1 [Compound 52, 2,4-Bis(1-imidazolyl)-6-[N-methyl-N-(4-nitrophenyl)amino]-1,3,5-triazine] as the molecule, how does the IC50 [1] read?
Answer: > 100 µM

Question: What about the IC50 (Aromatase) of the same molecule?
Answer: 0.01 µM

Question: Which IC50 [1] does the source give for CN(c1ccc(Cl)cc1)c1nc(-n2ccnc2)nc(-n2ccnc2)n1 [Compound 54, 2-[N-(4-Chlorophenyl)-N-methylamino]-4,6-bis(1-imidazolyl)-1,3,5-triazine] here?
Answer: 19 µM

Question: And the IC50 (Aromatase)?
Answer: 0.0086 µM

Question: With CN(c1ccc(Cl)cc1)c1nc(N2CCOCC2)nc(-n2ccnc2)n1 [Compound 55, 2-[N-(4-Chlorophenyl)-N-methylamino]-4-(1-imidazolyl)-6-morpholino-1,3,5-triazine] as the molecule, how does the IC50 [1] read?
Answer: 26 µM

Question: And the LD50 at 336 h [2]?
Answer: > 400 mg/kg

Question: And the IC50 (Aromatase)?
Answer: 0.0077 µM

Question: What does the source list for CN(c1ccc(N)cc1)c1nc(N2CCOCC2)nc(-n2ccnc2)n1 [Compound 56, 2-[N-(4-Aminophenyl)-N-methylamino]-4-(1-imidazolyl)-6-morpholino-1,3,5-triazine]?
Answer: IC50 [1]: > 100 µM; IC50 (Aromatase): 0.032 µM

Question: With Nc1ccc(N2CCN(c3nc(N4CCOCC4)nc(-n4ccnc4)n3)CC2)cc1 [hydrochloride of No. 57, Hydrochloride of 2-[4-(4-aminophenyl)-1-piperazinyl]-4-(1-imidazolyl)-6-morpholino-1,3,5-triazine] as the molecule, how does the IC50 [1] read?
Answer: > 100 µM

Question: And the IC50 (Aromatase)?
Answer: 0.031 µM

— patent publication US5489591A, “S-triazine derivative and remedy for estrogen-dependent disease containing said derivative as effective component” (Zenyaku Kogyo Kabushiki Kaisha, priority 1992, dated 1996)
